Data reported in patent publication US20200121589A1, “COMPOSITIONS FOR DRUG DELIVERY AND METHODS OF USE THEREOF” (Viramal Limited, priority 2017, published 2020).
Several values for one entry are separate records, joined by “and”; a condition that tells them apart may be missing. Identical values can stand only once.

What was measured:
[1] = Danazol concentrations in serum, peritoneal fluid and peritoneal tissue after oral or vaginal administration to female human subjects; type: in vivo; conditions: for Systemic, Average / Systemic: serum
Procedure: The following example illustrates an administering of either a vaginal or oral formulation of danazol to female human subjects. The vaginal formulation was prepared as described above in Example 2. The oral formulation contained a total dose of 200 mg of danazol present in a capsule body of titanium dioxide and gelatin, and formulated with starch, lactose, talcum and magnesium stearate.
Subjects were administered danazol daily for five days. Six subjects were given a total dose of 600 mg of the oral danazol formulation (3×200 mg) once daily for five days. Seven subjects were given the vaginal formulation containing a total of 100 mg danazol. Samples were then taken from each subject in order to determine the concentration of danazol present systemically, in peritoneal fluid, and in peritoneal tissue. In order to quantify the amount of danazol present systemically, serum samples were collected from each subject and analyzed as described above in Example 3. In order to determine the amount of danazol present in the peritoneal fluid and tissue, endometrial lesions or suspected lesions were harvested, and the amount of danazol present in the samples was quantified as described in Example 3.

[2] = in vivo; cited from earlier work
[3] = Oral - 600 mg Danazol daily for five days, average of six subjects
[4] = Oral - 600 mg Danazol daily for five days, individual subject
[5] = Vaginal - 100 mg Danazol daily for five days, average of seven subjects
[6] = Vaginal - 100 mg Danazol daily for five days, individual subject

Peritoneal Fluid, Average [1, 3]: 83.4 ng/mL
Systemic, Average [1, 3]: 156.5 ng/mL
Estimated Peritoneal Tissue, Average [1, 5]: 16.5 ng/mg
Peritoneal Fluid, Average [1, 5]: 1.2 ng/mL
Systemic, Average [1, 5]: 4.1 ng/mL
SMILES: C#C[C@]1(O)CC[C@H]2[C@@H]3CCC4=Cc5oncc5C[C@]4(C)[C@H]3CC[C@@]21C [Danazol]
Peritoneal Fluid [1, 4]: 134 ng/mL and 16.2 ng/mL and 132.8 ng/mL and 19.2 ng/mL and 130.7 ng/mL and 67.7 ng/mL
Systemic [1, 4]: 209 ng/mL and 141.3 ng/mL and 167 ng/mL and 109.7 ng/mL and 198.3 ng/mL and 113.4 ng/mL
Estimated Peritoneal Tissue [1, 6]: 8.4 ng/mg and 13.2 ng/mg and 13.6 ng/mg and 17.2 ng/mg and 16.4 ng/mg and 29.2 ng/mg and 17.6 ng/mg
Peritoneal Fluid [1, 6]: 1 ng/mL (4×) and 1.2 ng/mL and 1.6 ng/mL and 1.8 ng/mL
Systemic [1, 6]: 2.1 ng/mL and 3.3 ng/mL and 3.4 ng/mL and 4.3 ng/mL and 4.1 ng/mL and 7.3 ng/mL and 4.4 ng/mL
half-life [2]: 9.7 h
